The source of these data is BindingDB's records for doi:10.1111/cbdd.12121 (University of California San Diego, 2013).

For orientation: IC50 means the concentration needed to halve the response being measured. Read a low IC50 as greater potency in that assay.

The target in the assay is T1, Farnesyl pyrophosphate synthase (Homo sapiens, UniProt P14324).
T1 sequence (P14324 whole entry): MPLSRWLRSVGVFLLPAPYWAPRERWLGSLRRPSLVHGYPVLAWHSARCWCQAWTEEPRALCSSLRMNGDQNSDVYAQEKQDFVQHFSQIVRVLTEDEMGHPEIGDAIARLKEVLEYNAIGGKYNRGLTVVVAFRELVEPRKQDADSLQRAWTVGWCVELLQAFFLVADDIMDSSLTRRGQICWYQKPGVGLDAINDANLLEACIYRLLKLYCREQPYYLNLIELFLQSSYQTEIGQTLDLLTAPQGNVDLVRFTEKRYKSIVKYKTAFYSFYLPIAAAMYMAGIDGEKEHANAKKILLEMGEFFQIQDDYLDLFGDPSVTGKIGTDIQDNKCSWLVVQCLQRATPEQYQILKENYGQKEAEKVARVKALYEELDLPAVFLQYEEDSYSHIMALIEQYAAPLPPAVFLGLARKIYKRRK
As to the kind of experiment: Inhibition Assay. The conditions noted are these: pH 7.4; 25 °C. From the text: Human FPPS was expressed and purified and inhibition assays carried out as described previously.
Take `CC1CNC(c2ccc(NC(=O)c3ccc(C(=O)Nc4ccc(C5=NC(C)CN5)cc4)c(N)c3)cc2)=N1` (stereo unspecified) [66761, 16]: the IC50 is 2.5 µM.
`NC(=O)c1cc(NC(=O)c2ccc(C(=O)Nc3cc(C(N)=O)cc(C4=NCCN4)c3)cc2)cc(C2=NCCN2)c1` [100873, 18] showed an IC50 of 10.7 µM.
`O=C(Nc1ccc(C2=NCCN2)c(O)c1)c1ccc(C(=O)Nc2ccc(C3=NCCN3)c(O)c2)cc1` [76527, 23] returned an IC50 of 35 µM.
`Nc1c(C(=O)Nc2ccc(C3=NCCN3)cc2)cccc1C(=O)Nc1ccc(C2=NCCN2)cc1` [72564, 22] registered an IC50 of 22.3 µM. This IC50 lies about 1.6-fold lower than the previous one.
As to `O=C(Nc1ccc(C2=NCCN2)cc1)c1cccc(C(=O)Nc2ccc(C3=NCCN3)cc2)c1` [53212, 15], the IC50 turned out to be 1.9 µM.
As for `O=C(Nc1cccc(C2=NCCN2)c1)c1ccc(C(=O)Nc2cccc(C3=NCCN3)c2)cc1` [35839, 19], the IC50 is 13.7 µM.
As to `Nc1cc(C(=O)Nc2ccc(C3=NCCN3)cc2)ccc1C(=O)Nc1ccc(C2=NCCN2)cc1` [50469, 20], the IC50 came to 20.3 µM.
`O=C(Nc1ccc(C2=NCCN2)cc1)c1ccc(C(=O)Nc2ccc(C3=NCCN3)cc2)c([NH+]([O-])O)c1` (stereo unspecified) [60340, 13] gave an IC50 of 109 µM.
With `Nc1cc(C(=O)Nc2cccc(C3=NCCN3)c2)ccc1C(=O)Nc1cccc(C2=NCCN2)c1` [50464, 21], the IC50 stood at 21 µM.
For the compound `O=C(Nc1cccc(C2=NCCN2)c1)c1ccc(-c2ccc(C(=O)Nc3cccc(C4=NCCN4)c3)cc2)cc1` [50460, 14], the IC50 turned out to be 1.8 µM.
On to `O=C(Nc1ccccc1C1=NCCN1)c1ccc(C(=O)Nc2ccccc2C2=NCCN2)cc1` [35844, 17], for which the IC50 turned out to be 7 µM. Against the preceding compound, the IC50 is about 3.9-fold higher.
